The results in this text go back to US9199989B2, “N—(imidazolidin-2-ylidene)quinoline derivatives as modulators of alpha 2 adrenergic receptors” (Allergan, Inc., priority 2011, dated 2015).

This assay addresses T1, Alpha 2C adrenergic receptor (Homo sapiens, UniProt P18825).
T1 construct: expressed in transfected cells
T1 sequence (P18825 1-462): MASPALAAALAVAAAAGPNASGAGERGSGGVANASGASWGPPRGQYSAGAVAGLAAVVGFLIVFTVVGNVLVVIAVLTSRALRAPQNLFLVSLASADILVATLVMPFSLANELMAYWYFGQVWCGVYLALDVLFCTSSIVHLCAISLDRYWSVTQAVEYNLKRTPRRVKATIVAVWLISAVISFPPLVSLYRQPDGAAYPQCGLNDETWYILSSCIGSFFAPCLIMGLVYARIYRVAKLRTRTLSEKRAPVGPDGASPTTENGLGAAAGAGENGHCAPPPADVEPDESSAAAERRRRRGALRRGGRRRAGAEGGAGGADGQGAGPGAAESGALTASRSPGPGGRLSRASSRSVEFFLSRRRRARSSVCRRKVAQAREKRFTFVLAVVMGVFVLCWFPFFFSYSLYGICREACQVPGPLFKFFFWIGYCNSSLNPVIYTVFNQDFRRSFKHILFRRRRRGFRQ
Nature of the assay: RSAT (Receptor Selection and Amplification Technology) compound screening. The class given is cell-based. To be noted: for EC50: cells expressing the alpha 2C adrenergic receptor, receptor-mediated growth response, read-out: Intrinsic Activity EC50, Alpha 2C; for Intrinsic Activity (efficacy), Alpha 2C: relative efficacy compared to a standard full agonist. On the procedure: Cells expressing each of the alpha 2 adrenergic receptors alone were incubated with the various compounds and a receptor-mediated growth response was measured. The compound's activity was expressed as its relative efficacy compared to a standard full agonist (see Table 2).

Take `c1ccc2c(N=C3NCCN3)ccnc2c1` [Compound 1, N-(imidazolidin-2-ylidene)quinolin-4-amine]: the concentration for a half-maximal effect (EC50) (as a rule, the concentration that produces a half-maximal response) is 17.4 nM and the “Intrinsic Activity (efficacy), Alpha 2C” value was “(0.95)”.
On to `Clc1c(N=C2NCCN2)cnc2cccnc12` [Compound 2, 4-Chloro-N-(imidazolidin-2-ylidene)-1,5-naphthyridin-3-amine], for which the EC50 turned out to be 21 nM and the “Intrinsic Activity (efficacy), Alpha 2C” value is “(0.95)”.
For the compound `Cc1c(N=C2NCCN2)cnc2ccccc12` [Compound 3, N-(imidazolidin-2-ylidene)-4-methylquinolin-3-amine], the concentration for a half-maximal effect (EC50) stood at 1650 nM and the “Intrinsic Activity (efficacy), Alpha 2C” value is listed as “(0.21)”.
The matching figures for `Clc1c(N=C2NCCN2)cnc2ccccc12` [Compound 4, 4-Chloro-N-(imidazolidin-2-ylidene)quinolin-3-amine]: 368 nM and “(0.66)”.
Take `Brc1c(N=C2NCCN2)cnc2ccccc12` [Compound 5, 4-Bromo-N-(imidazolidin-2-ylidene)quinolin-3-amine]: the EC50 came to 1530 nM and the “Intrinsic Activity (efficacy), Alpha 2C” value was “(0.17)”.
The matching figures for `c1cnc2ncc(N=C3NCCN3)cc2n1` [Compound 6, N-(imidazolidin-2-ylidene)pyrido[2,3-b]pyrazin-7-amine]: 4580 nM and “(0.44)”.
The matching figures for `Cc1c(N=C2NCCN2)cnc2nccnc12` [Compound 7, N-(imidazolidin-2-ylidene)-8-methylpyrido[2,3-b]pyrazin-7-amine]: 311 nM and “(0.93)”.
